Test systems include COLO 205 colon; SNB-75 CNS; UACC-62 melanoma; U251 CNS; HOP-62 NSCLC; LOX IMVI melanoma; PC-3 prostate; UACC-257 melanoma; MALME-3M melanoma; SNB-19 CNS.
What all share (assay): DTP human tumour cell line panel, 48 h

Molecules are shown by their SMILES.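 Five concentrations, 48 hours, 96-well plates. At the GI50, growth is halved. At the TGI there is no net growth.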 Some results are limits rather than exact numbers.

In general, TGI refers to the concentration giving total growth inhibition. By GI50 is commonly meant the concentration giving 50% growth inhibition.

As to `O=C(/C=C1\N=C(c2ccccc2)N(c2nc3c(Cl)cc(Cl)cc3s2)C1=O)/C=C/c1ccccc1`, the TGI in the test with COLO 205 colon, with SNB-75 CNS, in the test with UACC-62 melanoma, in the test with U251 CNS, in the test on HOP-62 NSCLC and in the test with LOX IMVI melanoma was over 100 µM each time. For the same compound, the TGI in the test on PC-3 prostate, with UACC-257 melanoma, in the test with MALME-3M melanoma and with SNB-19 CNS was over 100 µM in each case.
Turning to `Cc1oc(N)c(S(=O)(=O)c2cc3ccccc3n(O)c2=N)c1C`, the TGI with COLO 205 colon, in the test on SNB-75 CNS, with UACC-62 melanoma, with U251 CNS, in the test on HOP-62 NSCLC and in the test with LOX IMVI melanoma was over 100 µM each time. Moreover, the TGI with PC-3 prostate, with UACC-257 melanoma, in the test on MALME-3M melanoma and in the test with SNB-19 CNS was over 100 µM throughout.
With `Nc1cc(S(=O)(=O)O)cc2ccc(S(=O)(=O)O)cc12`, the concentration for total growth inhibition (TGI) in the test on COLO 205 colon, in the test with SNB-75 CNS, in the test with UACC-62 melanoma, in the test with U251 CNS, with HOP-62 NSCLC and with LOX IMVI melanoma was over 100 µM in each case. Further, the TGI in the test on PC-3 prostate, with UACC-257 melanoma, with MALME-3M melanoma and in the test with SNB-19 CNS was over 100 µM each time.
Take `Clc1ccc(Nc2nc(Nc3ccccc3)nc(Nc3ccc(-c4cc(-c5ccc(Cl)cc5)on4)cc3)n2)cc1`: the GI50 in the test on COLO 205 colon was 11.9 µM; in the test on SNB-75 CNS, 21.6 µM; in the test with UACC-62 melanoma it was 16.7 µM; in the test with U251 CNS, 17.7 µM; in the test on HOP-62 NSCLC, 18.4 µM; in the test on LOX IMVI melanoma, 13.7 µM. Moreover, the GI50 was 8.4 µM with PC-3 prostate, 29.8 µM in the test with UACC-257 melanoma, 31.5 µM with MALME-3M melanoma and 45.6 µM in the test with SNB-19 CNS. For the same compound, the TGI with COLO 205 colon is 32.5 µM; with SNB-75 CNS it was over 100 µM; in the test on UACC-62 melanoma, 72.4 µM; in the test with U251 CNS, over 100 µM; in the test on HOP-62 NSCLC, over 100 µM; in the test with LOX IMVI melanoma it was over 100 µM. In addition, the TGI was over 100 µM with PC-3 prostate, over 100 µM in the test on UACC-257 melanoma, 93 µM with MALME-3M melanoma and over 100 µM in the test on SNB-19 CNS.
Consider `O=C(O)C(O)C(O)C(O)C(O)C(=O)O` (stereo not given), for which the concentration for total growth inhibition (TGI) in the test with COLO 205 colon, with SNB-75 CNS, in the test with UACC-62 melanoma, with U251 CNS, in the test with HOP-62 NSCLC and in the test with LOX IMVI melanoma was over 100 µM throughout. The total growth inhibition concentration (TGI) in the test with PC-3 prostate, in the test with UACC-257 melanoma, in the test with MALME-3M melanoma and in the test with SNB-19 CNS was over 100 µM in each case.
Turning to `O=C(Nc1ccc(-n2ccc3c(NC(=O)c4ccccc4)nccc32)cc1)Nc1cccc(C(F)(F)F)c1`, the GI50 with COLO 205 colon was 6.19 µM; in the test with SNB-75 CNS it was 7.67 µM; with UACC-62 melanoma, 7.36 µM; in the test on U251 CNS, 2.04 µM; in the test with HOP-62 NSCLC it was 5.65 µM; in the test on LOX IMVI melanoma, 2.38 µM. Also, the GI50 was 1.8 µM in the test on PC-3 prostate, 11.2 µM in the test on UACC-257 melanoma, 13.7 µM with MALME-3M melanoma and 11.1 µM with SNB-19 CNS. Also, the TGI in the test on COLO 205 colon was determined as 19.6 µM; in the test on SNB-75 CNS, 23.3 µM; with UACC-62 melanoma, 20.4 µM; in the test with U251 CNS, 10.8 µM; in the test with HOP-62 NSCLC, 19.1 µM; in the test on LOX IMVI melanoma, 10.9 µM. Moreover, the total growth inhibition concentration (TGI) came out at 8.56 µM in the test with PC-3 prostate, 26 µM in the test on UACC-257 melanoma, 31.2 µM in the test on MALME-3M melanoma and 26.8 µM with SNB-19 CNS.
Turning to `Cc1cc(C)c2c(=O)n(CC(O)CN3CCN(CCOCCO)CC3)sc2n1` (stereo not given), the TGI worked out at 34.1 µM in the test with COLO 205 colon; 5.78 µM in the test on SNB-75 CNS; 32.7 µM in the test on UACC-62 melanoma; 36.3 µM in the test with U251 CNS; 70.6 µM in the test on HOP-62 NSCLC; 37.1 µM in the test on LOX IMVI melanoma. Besides, the TGI was 40.7 µM in the test on PC-3 prostate, 24.6 µM in the test on UACC-257 melanoma, 35.4 µM in the test on MALME-3M melanoma and over 100 µM with SNB-19 CNS.
On to `CN(C)C(=O)OC1=CC2CCC(C1)N2C` (stereo not given), for which the total growth inhibition concentration (TGI) in the test on COLO 205 colon, in the test with SNB-75 CNS, in the test with UACC-62 melanoma, in the test with U251 CNS, with HOP-62 NSCLC and in the test on LOX IMVI melanoma was over 100 µM throughout. The concentration for total growth inhibition (TGI) with PC-3 prostate, with UACC-257 melanoma, in the test with MALME-3M melanoma and in the test on SNB-19 CNS was over 100 µM throughout.
As for `O/C(=C\c1nc2ccccc2nc1/C=C(\O)c1ccc(F)cc1)c1ccc(F)cc1`, the TGI in the test with COLO 205 colon, with SNB-75 CNS, with UACC-62 melanoma, in the test with U251 CNS, with HOP-62 NSCLC and with LOX IMVI melanoma was over 100 µM in each case. Also, the TGI in the test with PC-3 prostate, in the test with UACC-257 melanoma, in the test on MALME-3M melanoma and in the test on SNB-19 CNS was over 100 µM throughout.

These data come from PubChem BioAssay (NCI).
